Laboratory results from US20090012119A1, “FLUOROALKYLPYRROLIDINE DERIVATIVE” (DAIICHI SANKYO COMPANY LIMITED, priority 2005, published 2009).
In brackets after ≈: the same amount, converted by molar mass.

Tests used:
[1] = test system: Pr. vulgaris, 08601; assay: Antibacterial activity (MIC), standard method of Japanese Society of Chemotherapy; assay type: cell-based; settings: Proteus vulgaris
Description: (§1) MIC value is also shown for levofloxacin (LVFX), ciprofloxacin (CPFX), and Comparative Compound (compound of Example 1 in the Patent Document 1) for comparison with the MIC value of the compound of the present invention.

[2] = test system: Str. pyogenes, G-36; assay: as above; assay type: cell-based; settings: Streptococcus pyogenes, G36
Description: as §1

[3] = test system: S. aureus, 209P; assay: as above; assay type: cell-based; settings: Staphylococcus aureus
Description: as §1

[4] = test system: S. pneumoniae, J24; assay: as above; assay type: cell-based; settings: Streptococcus pneumoniae, J24: penicillin resistant pneumococcus (moderate resistance)
Description: as §1

[5] = test system: Ser. marcescens, 10100; assay: as above; assay type: cell-based; settings: Serratia marcescens
Description: as §1

[6] = test system: E. coli, NIHJ; assay: as above; assay type: cell-based; settings: Escherichia coli
Description: as §1

[7] = test system: S. maltophilia, IID-1275; assay: as above; assay type: cell-based; settings: Stenotrophomonas maltophilia, IID1275
Description: as §1

[8] = test system: S. epidermidis, 56500; assay: as above; assay type: cell-based; settings: Staphylococcus epidermidis
Description: as §1

[9] = test system: S. flexneri, 2A 5503; assay: as above; assay type: cell-based; settings: Shigella flexneri, 2A5503
Description: as §1

[10] = test system: Str. faecalis, ATCC-19433; assay: as above; assay type: cell-based; settings: Enterococcus faecalis, ATCC19433
Description: as §1

[11] = test system: S. aureus, 870307; assay: as above; assay type: cell-based; settings: 870307: levofloxacin-resistant methicillin-resistant Staphylococcus aureus
Description: as §1

[12] = test system: Ps. aeruginosa, 32104; assay: as above; assay type: cell-based; settings: Pseudomonas aeruginosa
Description: as §1

[13] = test system: Ps. aeruginosa, 32121; assay: as above; assay type: cell-based; settings: Pseudomonas aeruginosa
Description: as §1

[14] = test system: Pr. mirabilis, IFO-3849; assay: as above; assay type: cell-based; settings: Proteus mirabilis, IFO3849
Description: as §1

[15] = test system: 6 week old male Slc:ddY mice; assay: Single dose toxicity test, intravenous injection; assay type: in vivo
Protocol: The compounds of the present invention were evaluated for their toxicity in a single dose toxicity test by administering the compounds to 6 week old male Slc:ddY mice. The compound was diluted with 0.1 mol/l NaOH/physiological saline, and filtered through Millex GS filter (0.22 μm) for sterilization. The compound was administered at a rate of 10 ml/kg and 0.2 ml/min in a single dose by intravenous injection. The compound of Example 1 in the Patent Document 1 was used for the Comparative Compound as in the case of Test Example 1.

Row | Structure (SMILES) | MIC [1] [µg/mL] | MIC [2] [µg/mL] | MIC [3] [µg/mL] | MIC [4] [µg/mL] | MIC [5] [µg/mL] | MIC [6] [µg/mL] | MIC [7] [µg/mL] | MIC [8] [µg/mL] | MIC [9] [µg/mL] | MIC [10] [µg/mL] | MIC [11] [µg/mL] | MIC [12] [µg/mL] | MIC [13] [µg/mL] | MIC [14] [µg/mL] | Number of dead mice/Total ([15]; Dose 100 mg/kg) | Number of dead mice/Total ([15]; Dose 150 mg/kg) | melting point [°C]
1 | O=C(O)c1cn(C2CC2)c2cc(N3CCNCC3)c(F)cc2c1=O [CPFX, ciprofloxacin, reference compound] | ≤ 0.003 | 1.56 (≈ 4.71 µM) | 0.1 (≈ 0.302 µM) | 0.1 (≈ 0.302 µM) | 0.025 (≈ 0.0754 µM) | ≤ 0.003 | 0.78 (≈ 2.35 µM) | 0.2 (≈ 0.604 µM) | 0.006 (≈ 0.0181 µM) | 0.78 (≈ 2.35 µM) | > 6.25 | 0.05 (≈ 0.151 µM) | 0.025 (≈ 0.0754 µM) | 0.012 (≈ 0.0362 µM) |  |  | 
2 | COc1c(N2C[C@H](CF)[C@H](N)C2)c(F)cc2c(=O)c(C(=O)O)cn(C3C[C@@H]3F)c12 (stereo partly shown) [Comparative Compound, reference compound] | 0.012 (≈ 0.0292 µM) | 0.1 (≈ 0.243 µM) | 0.012 (≈ 0.0292 µM) | 0.025 (≈ 0.0608 µM) | 0.05 (≈ 0.122 µM) | ≤ 0.003 | 0.2 (≈ 0.486 µM) | 0.05 (≈ 0.122 µM) | 0.006 (≈ 0.0146 µM) | 0.1 (≈ 0.243 µM) | 0.2 (≈ 0.486 µM) | 0.2 (≈ 0.486 µM) | 0.05 (≈ 0.122 µM) | 0.025 (≈ 0.0608 µM) | 1/5 | 2/3 | 
3 | Cc1c(N2C[C@H](CF)[C@H](N)C2)c(F)cc2c(=O)c(C(=O)O)cn(C3CC3)c12 [Compound No. 1, 7-[(3S,4S)-3-amino-4-fluoromethyl-1-pyrrolidinyl]-1-cyclopropyl-6-fluoro-1,4-dihydro-8-methyl-4-oxoquinoline-3-carboxylic acid] | ≤ 0.003 | 0.1 (≈ 0.265 µM) | 0.012 (≈ 0.0318 µM) | 0.025 (≈ 0.0662 µM) | 0.025 (≈ 0.0662 µM) | ≤ 0.003 | 0.1 (≈ 0.265 µM) | 0.025 (≈ 0.0662 µM) | ≤ 0.003 | 0.05 (≈ 0.132 µM) | 0.2 (≈ 0.53 µM) | 0.05 (≈ 0.132 µM) | 0.025 (≈ 0.0662 µM) | 0.012 (≈ 0.0318 µM) |  |  | 160 to 165
4 | Cc1c(N2C[C@H](CF)[C@H](N)C2)ccc2c(=O)c(C(=O)O)cn(C3CC3)c12 [Compound No. 2, 7-[(3S,4S)-3-amino-4-fluoromethyl-1-pyrrolidinyl]-1-cyclopropyl-1,4-dihydro-8-methyl-4-oxoquinoline-3-carboxylic acid] | 0.006 (≈ 0.0167 µM) | 0.2 (≈ 0.556 µM) | 0.025 (≈ 0.0696 µM) | 0.1 (≈ 0.278 µM) | 0.05 (≈ 0.139 µM) | ≤ 0.003 | 0.2 (≈ 0.556 µM) | 0.1 (≈ 0.278 µM) | 0.006 (≈ 0.0167 µM) | 0.2 (≈ 0.556 µM) | 0.78 (≈ 2.17 µM) | 0.1 (≈ 0.278 µM) | 0.025 (≈ 0.0696 µM) | 0.05 (≈ 0.139 µM) |  |  | 203 to 205
5 | Cc1c(N2C[C@H](CF)[C@H](N)C2)c(F)cc2c(=O)c(C(=O)O)cn([C@@H]3C[C@@H]3F)c12 [Compound No. 3, 7-[(3S,4S)-3-amino-4-fluoromethyl-1-pyrrolidinyl]-6-fluoro-1-[(2S,1R)-2-fluorocyclopropyl]-1,4-dihydro-8-methyl-4-oxoquinoline-3-carboxylic acid] | ≤ 0.003 | 0.05 (≈ 0.126 µM) | 0.006 (≈ 0.0152 µM) | 0.025 (≈ 0.0632 µM) | 0.025 (≈ 0.0632 µM) | 0.006 (≈ 0.0152 µM) | 0.1 (≈ 0.253 µM) | 0.025 (≈ 0.0632 µM) | ≤ 0.003 | 0.1 (≈ 0.253 µM) | 0.39 (≈ 0.986 µM) | 0.05 (≈ 0.126 µM) | 0.025 (≈ 0.0632 µM) | 0.006 (≈ 0.0152 µM) | 0/5 | 0/3♭ | 
6 | CN[C@@H]1CN(c2c(F)cc3c(=O)c(C(=O)O)cn([C@@H]4C[C@@H]4F)c3c2C)C[C@@H]1CF [Compound No. 4, 7-[(3S,4S)-3-fluoromethyl-4-methylaminopyrrolidine-1-yl]-6-fluoro-1-[(2S,1R)-2-fluorocyclopropyl]-1,4-dihydro-8-methyl-4-oxoquinoline-3-carboxylic acid] | 0.006 (≈ 0.0147 µM) | 0.1 (≈ 0.244 µM) | 0.012 (≈ 0.0293 µM) | 0.05 (≈ 0.122 µM) | 0.05 (≈ 0.122 µM) | ≤ 0.003 | 0.1 (≈ 0.244 µM) | 0.05 (≈ 0.122 µM) | 0.006 (≈ 0.0147 µM) | 0.1 (≈ 0.244 µM) | 0.39 (≈ 0.953 µM) | 0.1 (≈ 0.244 µM) | 0.05 (≈ 0.122 µM) | 0.025 (≈ 0.0611 µM) | 0/5 | 1/2 | 
7 | CN[C@@H]1CN(c2c(F)cc3c(=O)c(C(=O)O)cn(C4CC4)c3c2C)C[C@@H]1CF [Compound No. 5, 1-cyclopropyl-6-fluoro-7-[(3S,4S)-3-fluoromethyl-4-methylaminopyrrolidine-1-yl]-8-methyl-1,4-dihydro-4-oxoquinoline-3-carboxylic acid] | 0.006 (≈ 0.0153 µM) | 0.1 (≈ 0.255 µM) | 0.012 (≈ 0.0307 µM) | 0.05 (≈ 0.128 µM) | 0.05 (≈ 0.128 µM) | ≤ 0.003 | 0.05 (≈ 0.128 µM) | 0.05 (≈ 0.128 µM) | ≤ 0.003 | 0.1 (≈ 0.255 µM) | 0.39 (≈ 0.996 µM) | 0.2 (≈ 0.511 µM) | 0.05 (≈ 0.128 µM) | 0.025 (≈ 0.0639 µM) |  |  | 156 to 158
8 | Cc1c(N2C[C@@H](N)[C@@H](C(F)F)C2)c(F)cc2c(=O)c(C(=O)O)cn([C@@H]3C[C@@H]3F)c12 [Compound No. 6, 7-[(3S,4S)-3-amino-4-difluoromethylpyrrolidine-1-yl]-6-fluoro-1-[(1R,2S)-2-fluorocyclopropyl]-8-methyl-1,4-dihydro-4-oxoquinoline-3-carboxylic acid] | 0.006 (≈ 0.0145 µM) | 0.05 (≈ 0.121 µM) | 0.012 (≈ 0.029 µM) | 0.05 (≈ 0.121 µM) | 0.05 (≈ 0.121 µM) | ≤ 0.003 | 0.05 (≈ 0.121 µM) | 0.025 (≈ 0.0605 µM) | ≤ 0.003 | 0.1 (≈ 0.242 µM) | 0.2 (≈ 0.484 µM) | 0.2 (≈ 0.484 µM) | 0.05 (≈ 0.121 µM) | 0.012 (≈ 0.029 µM) |  |  | 214 to 216
9 | C[C@H]1COc2c(N3CCN(C)CC3)c(F)cc3c(=O)c(C(=O)O)cn1c23 [LVFX, levofloxacin, reference compound] | 0.012 (≈ 0.0332 µM) | 0.78 (≈ 2.16 µM) | 0.2 (≈ 0.553 µM) | 0.78 (≈ 2.16 µM) | 0.1 (≈ 0.277 µM) | 0.012 (≈ 0.0332 µM) | 0.39 (≈ 1.08 µM) | 0.39 (≈ 1.08 µM) | 0.025 (≈ 0.0692 µM) | 0.78 (≈ 2.16 µM) | > 6.25 | 0.2 (≈ 0.553 µM) | 0.1 (≈ 0.277 µM) | 0.05 (≈ 0.138 µM) |  |  | 
